Measured values: ChEMBL document CHEMBL1201862, “PubChem BioAssay data set” (2004)
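96-well plates; 48 h exposure; 5 concentrations. Endpoints by linear interpolation between flanking doses. Not reached: highest tested concentration assigned. Here, GI50 denotes the concentration required for 50% inhibition of growth.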 Activity calls are given as the source filed them. Rule as the data show it: active = GI50 up to about 1.1 µM and inactive = higher.

Legend:
Experiment in all cases: growth of human tumour cells (NCI), 48 h
A498 = system: A498
A549 = system: A549
DU-145 = system: DU-145
HCT-116 = system: HCT-116
HL-60 = system: HL-60
HT-29 = system: HT-29
IGROV-1 = system: IGROV-1
KM12 = system: KM12
M14 = system: M14
NCI-H460 = system: NCI-H460
NCI/ADR-RES = system: NCI/ADR-RES
OVCAR-3 = system: OVCAR-3
OVCAR-4 = system: OVCAR-4
OVCAR-5 = system: OVCAR-5
OVCAR-8 = system: OVCAR-8
PC-3 = system: PC-3
SK-MEL-2 = system: SK-MEL-2
SNB-19 = system: SNB-19
SR = system: SR
SK-OV-3 = system: SK-OV-3

Measured: GI50

O=C(O)CN1CCN(CC(=O)O)CCN(CC(=O)O)CCN(CC(=O)O)CC1 [TETRAXETAN]
inactive: A498 > 100 µM | A549 > 100 µM | DU-145 > 100 µM | HCT-116 > 100 µM | HL-60 > 100 µM | HT-29 > 100 µM | IGROV-1 > 100 µM | KM12 > 100 µM | M14 > 100 µM | NCI-H460 > 100 µM | NCI/ADR-RES > 100 µM | OVCAR-3 > 100 µM | OVCAR-4 > 100 µM | OVCAR-5 > 100 µM | OVCAR-8 > 100 µM | PC-3 > 100 µM | SK-MEL-2 > 100 µM | SNB-19 > 100 µM | SR > 100 µM

O=C(NCCCCCCNC(=O)n1cc(F)c(=O)[nH]c1=O)NCCCOCCOCCOCCOCCOCCOCCOCCOCCOCCOCCOCCOCCOCCOCCOCCOCCOCCOCCOCCOCCOCCCNC(=O)C(O)C(O)C(OC1OC(CO)C(O)C(O)C1O)C(O)CO (stereo unspecified)
inactive: A498 18.6 µM | A549 7.33 µM | DU-145 27.7 µM | HCT-116 9.16 µM | HL-60 43.7 µM | HT-29 11 µM | IGROV-1 33.7 µM | KM12 19.6 µM | M14 67.5 µM | NCI-H460 3.58 µM | NCI/ADR-RES 47.2 µM | OVCAR-3 37.1 µM | OVCAR-4 29.6 µM | OVCAR-5 > 54 µM | OVCAR-8 43.4 µM | PC-3 55.2 µM | SK-MEL-2 > 100 µM | SK-OV-3 > 86.9 µM | SNB-19 88.3 µM | SR 16 µM

O=C1CCSCCC(=O)Nc2ccccc2N1
inactive: A498 > 100 µM | A549 > 100 µM | DU-145 > 100 µM | HCT-116 > 100 µM | HL-60 > 100 µM | HT-29 > 100 µM | IGROV-1 > 100 µM | KM12 > 100 µM | M14 > 100 µM | NCI-H460 > 100 µM | NCI/ADR-RES > 100 µM | OVCAR-3 > 100 µM | OVCAR-4 > 100 µM | OVCAR-5 > 100 µM | OVCAR-8 > 100 µM | PC-3 > 100 µM | SK-MEL-2 > 100 µM | SK-OV-3 > 100 µM | SNB-19 > 100 µM | SR > 100 µM

CC1=CC(=O)CC(C)(C)C1/C=C/C(C)=C/C=C/C(C)=C/C=C/C=C(C)/C=C/C=C(C)/C=C/C1=C(C)CC(O)CC1(C)C (stereo unspecified)
active: SR 0.0422 µM
inactive: A498 94.2 µM | DU-145 24.4 µM | HCT-116 18.4 µM | HL-60 18.6 µM | HT-29 30.8 µM | IGROV-1 39.1 µM | KM12 31.8 µM | M14 33 µM | NCI-H460 38.3 µM | NCI/ADR-RES 51.5 µM | OVCAR-3 25.2 µM | OVCAR-4 37.9 µM | OVCAR-5 57.3 µM | OVCAR-8 32.2 µM | PC-3 45.3 µM | SK-MEL-2 > 100 µM | SK-OV-3 > 100 µM

CCOC(=O)CCC(NC(=O)c1ccc(OCc2nc3cc(C(F)(F)F)ccc3nc2-c2ccccc2)cc1)C(=O)OCC (stereo unspecified)
inactive: A498 > 100 µM | A549 > 100 µM | DU-145 86.1 µM | HCT-116 52.2 µM | HL-60 > 100 µM | HT-29 > 100 µM | IGROV-1 75.2 µM | KM12 29 µM | M14 81.7 µM | NCI-H460 52.1 µM | NCI/ADR-RES 54 µM | OVCAR-3 79.1 µM | OVCAR-4 13.7 µM | OVCAR-5 > 100 µM | OVCAR-8 > 100 µM | PC-3 42.7 µM | SK-MEL-2 22 µM | SK-OV-3 > 100 µM | SNB-19 > 100 µM | SR 16.4 µM

CC1CN(CCO)CC(C)O1 (stereo unspecified)
inactive: A498 > 100 µM | A549 > 100 µM | DU-145 > 100 µM | HCT-116 > 100 µM | HL-60 > 100 µM | HT-29 > 100 µM | IGROV-1 > 100 µM | KM12 > 100 µM | M14 > 100 µM | NCI-H460 > 100 µM | NCI/ADR-RES > 100 µM | OVCAR-3 > 100 µM | OVCAR-4 > 100 µM | OVCAR-5 > 100 µM | OVCAR-8 > 100 µM | PC-3 > 100 µM | SK-MEL-2 > 100 µM | SK-OV-3 > 100 µM | SNB-19 > 100 µM | SR > 100 µM

O=c1[nH]/c(=C/c2ccc(OCc3ccccc3)cn2)c(=O)[nH]/c1=C/c1ccccc1
active: A498 0.743 µM | A549 0.594 µM | DU-145 0.128 µM | HCT-116 0.146 µM | HL-60 0.091 µM | HT-29 0.12 µM | IGROV-1 0.207 µM | KM12 0.118 µM | M14 0.129 µM | NCI-H460 0.132 µM | NCI/ADR-RES 0.0794 µM | OVCAR-3 0.114 µM | OVCAR-4 0.465 µM | OVCAR-5 1.07 µM | OVCAR-8 0.189 µM | PC-3 0.141 µM | SK-OV-3 0.531 µM | SNB-19 0.157 µM | SR 0.289 µM

CC(C)(Cl)C(Br)CCC(Br)(CCl)C(Cl)CBr (stereo unspecified)
inactive: A498 > 10 µM | DU-145 > 10 µM | HL-60 > 10 µM | HT-29 > 10 µM | IGROV-1 > 10 µM | KM12 > 10 µM | M14 > 10 µM | NCI-H460 > 10 µM | NCI/ADR-RES > 10 µM | OVCAR-3 > 10 µM | OVCAR-4 > 10 µM | OVCAR-5 > 10 µM | OVCAR-8 > 10 µM | PC-3 > 10 µM | SK-MEL-2 > 10 µM | SK-OV-3 > 10 µM | SNB-19 > 10 µM | SR > 10 µM

Cc1ccc(-c2c(C#N)c(S)n(NS(=O)(=O)c3ccccc3)c(=O)c2C#N)cc1
inactive: A498 21.2 µM | A549 39.7 µM | DU-145 53.3 µM | HCT-116 26.9 µM | HL-60 16.7 µM | IGROV-1 23.7 µM | KM12 28 µM | M14 29.9 µM | NCI-H460 15.6 µM | NCI/ADR-RES 13.2 µM | OVCAR-3 49 µM | OVCAR-4 34.4 µM | OVCAR-5 65.9 µM | OVCAR-8 21.2 µM | PC-3 23.5 µM | SK-MEL-2 43.8 µM | SK-OV-3 66.5 µM | SNB-19 31.5 µM | SR 15.1 µM

OC1C#CCSCC#C/C=C\1 (stereo unspecified)
inactive: A498 76.6 µM | DU-145 > 100 µM | HCT-116 62.1 µM | HL-60 23.6 µM | HT-29 65.9 µM | IGROV-1 > 100 µM | M14 > 100 µM | NCI-H460 13.7 µM | NCI/ADR-RES 1.93 µM | OVCAR-3 > 100 µM | OVCAR-4 > 100 µM | OVCAR-5 > 100 µM | OVCAR-8 3.72 µM | PC-3 > 100 µM | SK-MEL-2 > 100 µM | SK-OV-3 > 100 µM | SNB-19 > 100 µM | SR > 100 µM
